This assay deals with BDF1 mice, P388 leukemia ip, median survival T/C. Kind of assay: NCI In Vivo Anticancer Drug Screen. Data for tumor model P388 Leukemia (intraperitoneal) in B6D2F1 (BDF1) mice. As to conditions: endpoint: median survival time, higher = longer survival. A digest of the protocol: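 Vehicle-dosed animals serve as the reference; survival of compound-dosed, tumour-implanted mice is divided by it.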

Where [1] appears, read: dose: 50.0 mg/kg/injection, schedule: Q04DX002 (ip), vehicle: saline with Tween-80.
Where [2] appears, read: dose: 100.0 mg/kg/injection, schedule: Q04DX003 (ip), vehicle: saline.
The mark [3] stands for this setting: dose: 200.0 mg/kg/injection, schedule: Q04DX003 (ip), vehicle: saline.
Where [4] appears, read: dose: 400.0 mg/kg/injection, schedule: Q04DX003 (ip), vehicle: saline.
Where [5] appears, read: dose: 100.0 mg/kg/injection, schedule: Q04DX003 (ip), vehicle: saline with Tween-80.
Where [6] appears, read: dose: 400.0 mg/kg/injection, schedule: Q04DX003 (ip), vehicle: saline with Tween-80.
The mark [7] stands for this setting: dose: 6.25 mg/kg/injection, schedule: Q01DX009 (ip), vehicle: saline with Tween-80.
Where [8] appears, read: dose: 50.0 mg/kg/injection, schedule: Q01DX009 (ip), vehicle: saline with Tween-80.

Each structure is given as a SMILES string. Where “and” joins values, the source holds several entries; their conditions need not be identical. Equal entries are not always repeated. Toxic doses and inconclusive results are not listed.

In the case of `CCCC/C(C=O)=C\NC(=O)Nc1ccccc1`, the T/C by setting is: under setting [1], 100 % of control; (dose: 100.0 mg/kg/injection, schedule: Q04DX002 (ip), vehicle: saline with Tween-80) 90 % of control; (dose: 200.0 mg/kg/injection, schedule: Q04DX002 (ip), vehicle: saline with Tween-80) 98 % of control.
As for `OCc1cccc(F)c1`, the T/C (dose: 100.0 mg/kg/injection, schedule: Q01DX009 (ip), vehicle: saline) is 96 % of control; the T/C under setting [2] was 109 % of control; the T/C (dose: 200.0 mg/kg/injection, schedule: Q01DX009 (ip), vehicle: saline) is 107 % of control; the T/C under setting [3] was 109 % of control; the T/C under setting [4] is 104 % of control.
Turning to `CNNC(=O)NC`, the T/C was 108 % of control (dose: 2.06 mg/kg/injection, schedule: Q01DX009 (ip), vehicle: saline); 116 % of control (dose: 4.12 mg/kg/injection, schedule: Q01DX009 (ip), vehicle: saline); 91 % of control (dose: 8.25 mg/kg/injection, schedule: Q01DX009 (ip), vehicle: saline); 109 % of control (dose: 35.0 mg/kg/injection, schedule: Q04DX003 (ip), vehicle: saline); 113 % of control (dose: 55.0 mg/kg/injection, schedule: Q04DX003 (ip), vehicle: saline); 118 % of control (dose: 80.0 mg/kg/injection, schedule: Q04DX003 (ip), vehicle: saline). Also, the T/C reads like this: (dose: 120.0 mg/kg/injection, schedule: Q04DX003 (ip), vehicle: saline) 109 % of control; (dose: 180.0 mg/kg/injection, schedule: Q04DX003 (ip), vehicle: saline) 113 % of control; (dose: 270.0 mg/kg/injection, schedule: Q04DX003 (ip), vehicle: saline) 109 % of control.
As for `CC(=O)Oc1c(Cl)c(Cl)c(Cl)c(Cl)c1Cl`, the T/C is 115 % of control (dose: 100.0 mg/kg/injection, schedule: Q01DX001 (ip), vehicle: saline with Tween-80); 95 % of control (dose: 200.0 mg/kg/injection, schedule: Q01DX001 (ip), vehicle: saline with Tween-80); 100 % of control (dose: 400.0 mg/kg/injection, schedule: Q01DX001 (ip), vehicle: saline with Tween-80).
On to `O=C(CC(NC(=O)OCc1ccccc1)c1nn[nH]n1)OCc1ccccc1` (stereo not drawn), for which the T/C is, setting by setting: under setting [5], 100 % of control; (dose: 200.0 mg/kg/injection, schedule: Q04DX003 (ip), vehicle: saline with Tween-80) 95 % of control; under setting [6], 95 % of control.
Consider `CC(=O)NCCC(C)C`, for which the T/C is, setting by setting: under setting [2], 104 % of control; under setting [3], 113 % of control; under setting [4], 109 % of control.
As to `N#CCN1CCOCC1`, the T/C by setting is: (dose: 75.0 mg/kg/injection, schedule: Q01DX009 (ip), vehicle: saline) 104 % of control; under setting [2], 104 % of control; (dose: 150.0 mg/kg/injection, schedule: Q01DX009 (ip), vehicle: saline) 95 % of control; under setting [3], 104 % of control.
Take `CC(O)(c1ccc(Cl)cc1)C(c1ccccc1)c1ccccn1` (stereo not drawn): the T/C is 101 % of control (dose: 25.0 mg/kg/injection, schedule: Q01DX009 (ip), vehicle: water); 109 % of control (dose: 50.0 mg/kg/injection, schedule: Q01DX009 (ip), vehicle: water); 86 % of control (dose: 100.0 mg/kg/injection, schedule: Q01DX009 (ip), vehicle: water); 109 % of control (dose: 200.0 mg/kg/injection, schedule: Q01DX009 (ip), vehicle: water); 99 % of control (dose: 400.0 mg/kg/injection, schedule: Q01DX009 (ip), vehicle: water).
In the case of `CC(=O)CC(C)=O.CC(=O)CC(C)=O.O=N[O-].O=N[O-].[Co]`, the T/C is 106 % of control (dose: 25.0 mg/kg/injection, schedule: Q04DX002 (ip), vehicle: saline with Tween-80) and 109 % of control under setting [1].
With `CC(C)[N+](C)(C)CC(O)COc1cccc2ccccc12` (stereo not drawn), the T/C was 103 % of control and 112 % of control (dose: 12.5 mg/kg/injection, schedule: Q01DX009 (ip), vehicle: saline); 88 % of control and 109 % of control (dose: 25.0 mg/kg/injection, schedule: Q01DX009 (ip), vehicle: saline); 105 % of control and 123 % of control (dose: 50.0 mg/kg/injection, schedule: Q01DX009 (ip), vehicle: saline).
`Clc1ccccc1-c1ncc2cnccn12`: the T/C runs as follows: (dose: 0.19 mg/kg/injection, schedule: Q01DX009 (ip), vehicle: saline with Tween-80) 102 % of control; (dose: 0.39 mg/kg/injection, schedule: Q01DX009 (ip), vehicle: saline with Tween-80) 102 % of control; (dose: 0.78 mg/kg/injection, schedule: Q01DX009 (ip), vehicle: saline with Tween-80) 106 % of control; (dose: 1.56 mg/kg/injection, schedule: Q01DX009 (ip), vehicle: saline with Tween-80) 102 % of control; under setting [7], 99 % of control and 103 % of control; (dose: 12.5 mg/kg/injection, schedule: Q01DX009 (ip), vehicle: saline with Tween-80) 86 % of control. The T/C by setting is: (dose: 25.0 mg/kg/injection, schedule: Q01DX009 (ip), vehicle: saline with Tween-80) 88 % of control; (dose: 25.0 mg/kg/injection, schedule: Q04DX003 (ip), vehicle: saline with Tween-80) 115 % of control; under setting [8], 86 % of control; (dose: 50.0 mg/kg/injection, schedule: Q04DX003 (ip), vehicle: saline with Tween-80) 107 % of control; under setting [5], 88 % of control.
For the compound `CC(=O)N(CCN(Cc1ccc(Oc2ccc([N+](=O)[O-])cc2[N+](=O)[O-])cc1)C(C)=O)CCN(Cc1ccc(Oc2ccc([N+](=O)[O-])cc2[N+](=O)[O-])cc1)C(C)=O`, the T/C (dose: 25.0 mg/kg/injection, schedule: Q01DX009 (ip), vehicle: other) is 94 % of control; the T/C (dose: 50.0 mg/kg/injection, schedule: Q01DX009 (ip), vehicle: other) is 103 % of control; the T/C (dose: 100.0 mg/kg/injection, schedule: Q01DX009 (ip), vehicle: other) is 100 % of control; the T/C (dose: 200.0 mg/kg/injection, schedule: Q01DX009 (ip), vehicle: other) was 94 % of control; the T/C (dose: 400.0 mg/kg/injection, schedule: Q01DX009 (ip), vehicle: other) is 103 % of control.
For the compound `Nc1nc(=S)c2[nH]c(=S)[nH]c2[nH]1`, the T/C is, setting by setting: (dose: 78.0 mg/kg/injection, schedule: Q04DX003 (ip), vehicle: saline with Tween-80) 104 % of control; (dose: 118.0 mg/kg/injection, schedule: Q04DX003 (ip), vehicle: saline with Tween-80) 112 % of control; under setting [6], 172 % of control; (dose: 600.0 mg/kg/injection, schedule: Q04DX003 (ip), vehicle: saline with Tween-80) 186 % of control.
As to `Cc1cc(C)c(CCl)cc1CCl`, the T/C is 104 % of control (dose: 3.0 mg/kg/injection, schedule: Q01DX009 (ip), vehicle: saline with Tween-80); 116 % of control (dose: 4.5 mg/kg/injection, schedule: Q01DX009 (ip), vehicle: saline with Tween-80); 118 % of control under setting [7]; 150 % of control (dose: 16.5 mg/kg/injection, schedule: Q01DX009 (ip), vehicle: saline with Tween-80); 120 % of control (dose: 37.5 mg/kg/injection, schedule: Q01DX009 (ip), vehicle: saline with Tween-80).
`O=C1OC(=O)C2C1C(c1ccc([N+](=O)[O-])cc1)N1C3C(=O)OC(=O)C3C(c3ccc([N+](=O)[O-])cc3)N21` (stereo not drawn): the T/C by setting is: under setting [8], 97 % of control; (dose: 100.0 mg/kg/injection, schedule: Q01DX009 (ip), vehicle: saline with Tween-80) 99 % of control; (dose: 200.0 mg/kg/injection, schedule: Q01DX009 (ip), vehicle: saline with Tween-80) 92 % of control.

The values are drawn from PubChem BioAssay AID328 (DTP/NCI, 2004).
